The source made the active and inactive calls.
Tests used:
[1] = target: T1, Microphthalmia-associated transcription factor (Homo sapiens, UniProt O75030); assay: reducers of TRPM1 reporter luminescence, concentration series – cell-based, SK-MEL-5, cherry-picked, set 3, MITF inhibitor project, dose response (AID 493073); type: functional;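 also: SK-MEL-5 melanoma cells with luciferase driven by the MITF target TRPM1 promoter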
T1 sequence (O75030 whole entry): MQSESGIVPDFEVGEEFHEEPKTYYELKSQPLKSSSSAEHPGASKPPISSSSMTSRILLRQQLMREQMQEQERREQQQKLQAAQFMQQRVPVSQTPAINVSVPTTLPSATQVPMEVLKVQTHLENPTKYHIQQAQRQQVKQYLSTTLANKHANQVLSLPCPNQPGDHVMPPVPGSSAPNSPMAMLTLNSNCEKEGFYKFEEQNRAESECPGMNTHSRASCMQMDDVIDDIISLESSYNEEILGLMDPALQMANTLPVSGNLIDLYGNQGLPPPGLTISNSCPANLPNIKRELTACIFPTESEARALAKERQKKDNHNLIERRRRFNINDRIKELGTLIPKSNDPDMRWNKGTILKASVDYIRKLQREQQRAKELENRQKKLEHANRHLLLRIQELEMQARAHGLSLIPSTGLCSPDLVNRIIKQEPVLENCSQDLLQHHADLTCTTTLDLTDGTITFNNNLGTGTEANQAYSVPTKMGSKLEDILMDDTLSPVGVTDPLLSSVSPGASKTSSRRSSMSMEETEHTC

[2] = alpha-synuclein stem-loop luciferase translation blockers – H4 neuroglioma cells, luminescence, confirmation (AID 1988); type: functional, cell-based
[3] = luciferase reporter signal suppression in cells – H4 neuroglioma cells, luminescence, dose response (AID 1990); type: functional, cell-based
[4] = Luminescence Cell-Based Dose Response HTS to Identify Inhibitors of 5'UTR Stem-Loop Driven Prion Protein mRNA Translation in H4 Neuroglioblastoma Cells. [Related pubchem assays: 1827 (Project Summary), 1813 (Primary HTS)]; type: functional
[5] = target: Glyceraldehyde-3-phosphate dehydrogenase (Homo sapiens, UniProt P04406)
Chain of Glyceraldehyde-3-phosphate dehydrogenase (P04406 whole entry): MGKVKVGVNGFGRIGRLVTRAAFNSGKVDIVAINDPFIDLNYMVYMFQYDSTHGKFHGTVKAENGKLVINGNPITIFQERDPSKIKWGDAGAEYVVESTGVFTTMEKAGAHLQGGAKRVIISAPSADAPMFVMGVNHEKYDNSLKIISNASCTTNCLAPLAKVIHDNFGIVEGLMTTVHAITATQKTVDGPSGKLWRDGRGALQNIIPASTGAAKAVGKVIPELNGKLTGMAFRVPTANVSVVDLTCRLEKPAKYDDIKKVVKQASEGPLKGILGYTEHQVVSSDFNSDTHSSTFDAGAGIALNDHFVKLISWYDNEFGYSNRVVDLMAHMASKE

[6] = THP-1 cell cytotoxicity, dose response, cytotoxicity control for non-replicating M. tuberculosis project (AID 489025); type: functional
cells = type: functional
[7] = target: T2, DNA repair protein RAD52 homolog (Homo sapiens, UniProt P43351); type: functional, biochemical
T2 sequence (P43351 whole entry): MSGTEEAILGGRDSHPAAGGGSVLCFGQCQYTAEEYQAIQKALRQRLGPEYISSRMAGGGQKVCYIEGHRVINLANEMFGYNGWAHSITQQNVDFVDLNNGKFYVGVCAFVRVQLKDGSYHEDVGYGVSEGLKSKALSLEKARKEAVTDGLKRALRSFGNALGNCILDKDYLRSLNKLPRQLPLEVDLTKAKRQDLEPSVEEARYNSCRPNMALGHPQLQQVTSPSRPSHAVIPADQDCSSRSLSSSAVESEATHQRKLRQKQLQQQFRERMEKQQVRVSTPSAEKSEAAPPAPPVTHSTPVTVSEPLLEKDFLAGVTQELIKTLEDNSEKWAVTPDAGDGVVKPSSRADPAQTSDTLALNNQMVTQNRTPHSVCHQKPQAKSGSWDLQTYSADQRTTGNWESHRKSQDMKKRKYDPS

Protein RecA = target: T3, Protein RecA (Mycobacterium tuberculosis, UniProt P9WHJ3); assay: Fluorescence Cell-Free Homogeneous Dose Retest to Identify Inhibitors of RecA-Intein Splicing Activity. [Related pubchem assays (depositor defined):AID2097, AID2223, AID489010, AID492950]; type: functional
T3 sequence (P9WHJ3 whole entry): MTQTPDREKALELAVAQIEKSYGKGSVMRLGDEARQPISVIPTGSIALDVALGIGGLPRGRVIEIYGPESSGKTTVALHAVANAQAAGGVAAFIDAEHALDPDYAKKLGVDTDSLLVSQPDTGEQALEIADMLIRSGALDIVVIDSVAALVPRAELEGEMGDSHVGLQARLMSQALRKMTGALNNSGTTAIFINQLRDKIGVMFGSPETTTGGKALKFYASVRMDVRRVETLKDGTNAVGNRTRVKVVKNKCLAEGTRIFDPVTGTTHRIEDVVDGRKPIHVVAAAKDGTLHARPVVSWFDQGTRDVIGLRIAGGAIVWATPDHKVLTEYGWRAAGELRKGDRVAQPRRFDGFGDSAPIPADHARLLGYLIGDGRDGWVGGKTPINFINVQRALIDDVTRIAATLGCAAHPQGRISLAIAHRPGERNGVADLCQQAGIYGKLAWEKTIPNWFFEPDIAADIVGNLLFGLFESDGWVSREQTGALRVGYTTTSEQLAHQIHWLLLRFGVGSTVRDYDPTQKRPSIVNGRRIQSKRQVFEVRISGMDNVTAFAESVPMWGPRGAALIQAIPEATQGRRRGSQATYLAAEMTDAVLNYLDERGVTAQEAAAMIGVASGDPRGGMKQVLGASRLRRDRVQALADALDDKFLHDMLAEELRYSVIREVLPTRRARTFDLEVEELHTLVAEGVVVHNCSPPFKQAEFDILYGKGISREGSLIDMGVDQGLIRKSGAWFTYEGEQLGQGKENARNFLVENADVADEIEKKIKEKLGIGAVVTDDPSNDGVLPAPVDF

Vero = assay: viability of Vero cells under compound – cytotoxicity control for flavivirus capping enzyme inhibitors (AID 588742); type: functional; conditions: Chlorocebus sabaeus
[8] = reduction of Shn3 3'UTR-driven luciferase in osteoblasts – cell-based, Clone20 osteoblasts, firefly luciferase, cherry-picked, dose response (AID 624132); type: functional;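 also: firefly luciferase luminescence from reporter carrying the Shn3 3'UTR in osteoblasts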
[9] = non-specific 3'UTR reporter inhibition in Clone20-Shn3RL – cell-based, Renilla luciferase, cherry-picked, counter-screen for Shn3 inhibitor project, dose response (AID 624133); type: functional
Genome polyprotein = Genome polyprotein (dengue virus type 2, UniProt P29990); assay: flavivirus cap methylation enzyme inhibition – biochemical, confirmation dose response, primary screen (AID 588689); type: functional
Chain of Genome polyprotein (P29990 2492-3391 limits assumed): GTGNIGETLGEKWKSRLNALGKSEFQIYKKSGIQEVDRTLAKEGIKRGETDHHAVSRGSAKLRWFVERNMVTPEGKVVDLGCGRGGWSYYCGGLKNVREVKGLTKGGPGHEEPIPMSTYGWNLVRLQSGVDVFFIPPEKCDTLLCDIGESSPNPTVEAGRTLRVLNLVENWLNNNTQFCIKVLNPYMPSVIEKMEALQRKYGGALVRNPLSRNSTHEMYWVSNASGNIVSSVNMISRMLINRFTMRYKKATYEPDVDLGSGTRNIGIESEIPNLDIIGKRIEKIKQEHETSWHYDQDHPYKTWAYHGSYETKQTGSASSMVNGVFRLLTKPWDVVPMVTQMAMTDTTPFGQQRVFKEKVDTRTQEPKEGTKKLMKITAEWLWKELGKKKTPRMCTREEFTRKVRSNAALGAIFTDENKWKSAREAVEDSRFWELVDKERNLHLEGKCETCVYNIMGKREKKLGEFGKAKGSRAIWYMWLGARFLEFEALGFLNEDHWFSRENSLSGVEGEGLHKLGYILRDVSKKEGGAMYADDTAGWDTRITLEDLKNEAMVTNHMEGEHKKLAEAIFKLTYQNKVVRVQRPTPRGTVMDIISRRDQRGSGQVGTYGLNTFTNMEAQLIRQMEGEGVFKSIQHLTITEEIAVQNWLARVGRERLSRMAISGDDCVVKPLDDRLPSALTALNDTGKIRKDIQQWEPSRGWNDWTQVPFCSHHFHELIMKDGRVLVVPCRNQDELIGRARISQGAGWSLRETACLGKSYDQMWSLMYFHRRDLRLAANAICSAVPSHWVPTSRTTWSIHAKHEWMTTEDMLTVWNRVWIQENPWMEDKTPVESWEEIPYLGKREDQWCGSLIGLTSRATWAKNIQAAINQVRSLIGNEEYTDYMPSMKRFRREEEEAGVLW

[10] = target: T4, Replicative DNA helicase DnaB (Mycobacterium tuberculosis, UniProt P9WMR3); assay: DnaB intein splicing inhibitors, dose response, biochemical, cell-free fluorescence (AID 449749); type: functional
T4 sequence (P9WMR3 whole entry): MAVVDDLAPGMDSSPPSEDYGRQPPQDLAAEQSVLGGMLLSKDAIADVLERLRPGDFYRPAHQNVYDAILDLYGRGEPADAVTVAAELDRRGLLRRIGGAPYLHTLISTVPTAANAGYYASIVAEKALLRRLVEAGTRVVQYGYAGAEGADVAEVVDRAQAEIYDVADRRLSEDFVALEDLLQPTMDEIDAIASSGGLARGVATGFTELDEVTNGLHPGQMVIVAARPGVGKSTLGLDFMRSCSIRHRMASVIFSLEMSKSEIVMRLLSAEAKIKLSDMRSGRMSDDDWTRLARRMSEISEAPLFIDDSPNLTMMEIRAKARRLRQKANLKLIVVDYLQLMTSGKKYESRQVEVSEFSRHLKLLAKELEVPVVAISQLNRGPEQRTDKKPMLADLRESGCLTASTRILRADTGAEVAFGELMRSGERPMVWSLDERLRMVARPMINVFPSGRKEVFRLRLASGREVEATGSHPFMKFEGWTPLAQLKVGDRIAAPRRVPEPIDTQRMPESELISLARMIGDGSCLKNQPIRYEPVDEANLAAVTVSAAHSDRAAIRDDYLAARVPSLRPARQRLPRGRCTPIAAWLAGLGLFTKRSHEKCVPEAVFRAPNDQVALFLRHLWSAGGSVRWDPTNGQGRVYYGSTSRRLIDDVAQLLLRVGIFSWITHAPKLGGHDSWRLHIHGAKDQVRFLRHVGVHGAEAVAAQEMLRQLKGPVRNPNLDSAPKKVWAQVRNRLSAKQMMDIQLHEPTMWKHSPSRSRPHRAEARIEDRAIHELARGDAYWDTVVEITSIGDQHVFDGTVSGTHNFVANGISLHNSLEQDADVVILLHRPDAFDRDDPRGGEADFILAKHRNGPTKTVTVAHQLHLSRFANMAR

Estrogen receptor beta = Estrogen receptor beta (Homo sapiens, UniProt Q92731);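 also: recombinant ER-beta bound to coactivator SRC1 peptide in presence of estradiol agonist; inhibitors block coactivator peptide binding and lower the FRET signal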
Chain of Estrogen receptor beta (Q92731 whole entry): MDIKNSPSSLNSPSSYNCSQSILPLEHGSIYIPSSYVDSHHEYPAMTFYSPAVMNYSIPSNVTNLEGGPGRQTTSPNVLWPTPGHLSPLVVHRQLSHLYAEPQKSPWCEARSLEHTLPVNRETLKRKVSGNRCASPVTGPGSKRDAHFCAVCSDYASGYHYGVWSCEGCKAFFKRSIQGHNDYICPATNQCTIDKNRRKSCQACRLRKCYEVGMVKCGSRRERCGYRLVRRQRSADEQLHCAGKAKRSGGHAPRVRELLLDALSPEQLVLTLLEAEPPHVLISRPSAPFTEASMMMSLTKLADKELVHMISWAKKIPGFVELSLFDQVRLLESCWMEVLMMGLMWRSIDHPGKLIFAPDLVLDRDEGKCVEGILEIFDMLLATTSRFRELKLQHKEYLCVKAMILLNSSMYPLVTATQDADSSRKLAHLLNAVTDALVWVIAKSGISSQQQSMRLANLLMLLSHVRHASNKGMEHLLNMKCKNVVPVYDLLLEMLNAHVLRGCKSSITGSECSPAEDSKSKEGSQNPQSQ

[11] = NIH3T3 cell viability loss – ATP luminescence, mouse fibroblasts, counter-screen, dose response (AID 2010); type: functional, cell-based;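 also: cells exposed to compound for about 90 hours before reading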
[12] = Trypanosoma cruzi growth suppression in host cells – NIH3T3 host cells, beta-gal luminescence, confirmation (AID 2044); type: functional, cell-based;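 also: intracellular parasites grown in NIH/3T3 mouse fibroblasts as host cells; luminescent beta-galactosidase reporter signal from transgenic T. cruzi replicating inside host cells; inhibitors lower the luminescence signal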
[13] = growth inhibition of PfATP4-mutant resistant parasites – NITD609-resistant line, SYBR Green, dry powder, dose response (AID 1159571); type: functional, cell-based;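 also: parasites synchronized at ring stage by sorbitol before testing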
[14] = P. falciparum Dd2 growth inhibitors, dose response, SYBR Green, cherry-picked samples (AID 1159567); type: functional, cell-based
[15] = Dd2 malaria parasite growth inhibition potency – SYBR Green, dry powder samples, dose response (AID 1159566); type: functional, cell-based;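 also: potency for growth inhibition with lower SYBR green DNA signal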
[16] = growth inhibition of yeast DHODH-expressing 3D7 parasites – SYBR Green, dry powder samples, dose response (AID 1159570); type: functional, cell-based;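 also: parasite growth measured after 72 hours of compound exposure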
[17] = viability loss in HeLa cells – cytotoxicity control for MgcRacGAP inhibitor project, dose response (AID 624300); type: functional
[18] = Luminescence Cell-Based Dose Retest to Confirm Inhibitors of Cancer Stem Cells. [Related pubchem assays (depositor defined):AID2717, AID2721]; type: functional; conditions: Homo sapiens
[19] = target: T5, Rac GTPase-activating protein 1 (Homo sapiens, UniProt Q9H0H5); assay: blockers of MgcRacGAP-driven Rac1 GTP hydrolysis – biochemical, ADP Hunter fluorescence, primary and confirmatory, confirmation (AID 624330); type: functional
T5 sequence (Q9H0H5 whole entry): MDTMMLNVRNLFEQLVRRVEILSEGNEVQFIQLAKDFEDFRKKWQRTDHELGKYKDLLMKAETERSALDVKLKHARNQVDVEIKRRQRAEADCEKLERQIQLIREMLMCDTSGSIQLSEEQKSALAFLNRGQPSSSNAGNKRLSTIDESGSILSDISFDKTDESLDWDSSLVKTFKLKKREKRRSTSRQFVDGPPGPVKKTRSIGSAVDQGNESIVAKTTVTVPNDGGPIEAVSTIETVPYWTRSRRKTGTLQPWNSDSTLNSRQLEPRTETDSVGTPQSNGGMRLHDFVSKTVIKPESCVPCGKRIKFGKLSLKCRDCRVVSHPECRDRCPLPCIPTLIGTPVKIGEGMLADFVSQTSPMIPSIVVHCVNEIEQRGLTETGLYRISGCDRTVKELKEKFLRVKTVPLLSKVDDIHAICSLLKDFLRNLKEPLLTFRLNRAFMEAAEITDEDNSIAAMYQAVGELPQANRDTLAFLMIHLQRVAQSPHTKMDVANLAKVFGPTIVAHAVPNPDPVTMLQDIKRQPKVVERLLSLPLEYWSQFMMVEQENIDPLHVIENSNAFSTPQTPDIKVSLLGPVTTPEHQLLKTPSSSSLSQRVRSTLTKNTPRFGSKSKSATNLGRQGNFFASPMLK

[20] = target: DNA dC->dU-editing enzyme APOBEC-3G (Homo sapiens, UniProt Q9HC16); assay: Dose Response confirmation of small molecule APOBEC3G DNA Deaminase Inhibitors via a fluorescence-based single-stranded DNA deaminase assay. [Related pubchem assays (depositor defined):AID493012, AID493028]; type: functional
Chain of DNA dC->dU-editing enzyme APOBEC-3G (Q9HC16 whole entry): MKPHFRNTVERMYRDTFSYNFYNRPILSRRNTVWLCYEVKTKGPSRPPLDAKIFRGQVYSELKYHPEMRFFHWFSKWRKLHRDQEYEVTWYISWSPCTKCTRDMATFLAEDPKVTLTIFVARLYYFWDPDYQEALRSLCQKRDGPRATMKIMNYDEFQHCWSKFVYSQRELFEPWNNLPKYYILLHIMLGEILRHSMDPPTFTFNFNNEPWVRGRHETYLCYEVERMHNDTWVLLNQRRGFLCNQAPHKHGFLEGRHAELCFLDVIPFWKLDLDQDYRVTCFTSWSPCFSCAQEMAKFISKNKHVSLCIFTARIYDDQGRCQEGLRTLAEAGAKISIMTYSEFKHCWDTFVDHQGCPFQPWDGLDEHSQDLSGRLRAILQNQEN

SMILES: CCOC(=O)N1C(=O)[C@](CC)(c2ccccc2)N1C(=O)OCC
- AC50 [1]: 10 µM (active)

SMILES: COc1cc2cc(C(c3nnnn3C3CCCCC3)N(C)C3CCCCC3)c(O)nc2cc1OC (stereo unspecified)
- EC50 [2]: > 120 µM (not active)
- EC50 [3]: 15.7 µM (active)
- EC50 [4]: > 120 µM (not active)

SMILES: Cc1onc(-c2ccccc2Cl)c1C(=O)Nc1ccc(S(N)(=O)=O)cc1
- IC50 [5]: > 100 µM (not active)

SMILES: O=C1/C(=C/c2ccccn2)COc2ccccc21
- CC50 [6]: 28.2 µM (active)
- IC50 (cells): 20.9 µM (active)

SMILES: CCOc1cccc2sc(N(CCCN(C)C)C(=O)c3ccc(C(=O)c4ccccc4)cc3)nc12
- AC50 [7]: 17.3 µM (active)

SMILES: O=C(NNC(=O)c1ccc2ncccc2c1)c1ccc(Cl)cc1
- EC50 [2]: > 120 µM (not active)
- EC50 [3]: > 120 µM (not active)
- EC50 [4]: > 120 µM (not active)

SMILES: Cc1cccc(CS(=O)(=O)c2ncc(Cl)c(C(=O)Nc3nnc(C(C)C)s3)n2)c1
- EC50 (Protein RecA): 0.312 µM (active)
- CC50 (Vero): 25.6 µM (active)
- AC50 [8]: 1.62 µM (active)
- AC50 [9]: 4.36 µM (active)
- IC50 (Genome polyprotein): 94.3 µM (active)
- AC50 [10]: 1.2 µM (active)

SMILES: Cc1onc(-c2ccccc2Cl)c1C(=O)NCc1ccccn1
- EC50 [2]: > 120 µM (not active)
- EC50 [3]: > 120 µM (not active)
- EC50 [4]: > 120 µM (not active)

SMILES: CCn1c(NN)nc2sc3c(c2c1=O)CCC3
- IC50 (Estrogen receptor beta): > 50 µM (not active)

SMILES: O=C(NCCCCCCCN1CCCCCCC1)C(C1CCCCC1)C1CCCCC1
- AC50 [7]: 8.88 µM (active)

SMILES: CC(OC(=O)c1ccc([N+](=O)[O-])s1)C(=O)NC1CCCCC1C (stereo unspecified)
- AC50 [1]: 12 µM (active)
- IC50 (cells): 14.1 µM (active)

SMILES: CN(C)CCNC(=O)c1ccc(-c2cn3c(-c4ccc(Oc5ccccc5)cc4)cnc3cn2)cc1
- AC50 [7]: 5.06 µM (active)

SMILES: COc1ccc(/C=N/NC(=O)c2cccnc2)cc1COc1ccc([N+](=O)[O-])c(C)c1
- EC50 [2]: 8.08 µM (active)
- EC50 [3]: > 120 µM (not active)
- EC50 [4]: 28.9 µM (active)

SMILES: O=C(N/N=C\c1ccc([N+](=O)[O-])o1)C1COc2ccccc2O1 (stereo unspecified)
- CC50 [6]: 32.5 µM (active)
- AC50 [1]: 7.21 µM (active)
- EC50 [11]: > 60 µM (inconclusive)
- IC50 (cells): 4.2 µM (active)
- EC50 [12]: 0.532 µM (active)

SMILES: C[C@H]1CN([C@@H](C)CO)C(=O)c2cc(NC(=O)Nc3ccc(C(F)(F)F)cc3)ccc2O[C@@H]1CN(C)C(=O)Nc1cccc2ccccc12
- AC50 [13]: 1.56 µM (active)
- AC50 [14]: 2.41 µM (active)
- AC50 [15]: 1.37 µM (active)
- AC50 [16]: 1.42 µM (active)

SMILES: Oc1ccc(-c2csc(Nc3ccccn3)n2)c(O)c1
- CC50 [17]: 100 µM (active)
- AC50 [18]: 1.74 µM (active)
- IC50 [19]: 59.5 µM (active)

SMILES: O=C1C=CC(=O)C=C1 [BENZOQUINONE]
- IC50 [20]: 36.1 µM (active)
